Reference: patent publication US20250332173A1, “COMPOUNDS AND METHODS FOR MODULATING NUCLEIC ACID SPLICING” (REMIX THERAPEUTICS INC., priority 2021, published 2025)
Like-named read-outs stand apart in the source and are kept apart here.

Assays:
[1] = test system: HTT mRNA; experiment: RT-qPCR splicing assay, HTT canonical junction (CJ) and alternative junction (AJ) mRNA; assay type: cell-based, human; conditions: Homo sapiens; for AC50: increase in HTT alternative junction (AJ) mRNA, read-out: HTT AJ AC50
Procedure: (§1) The expression of a target mRNA was measured by detecting the formation of an exon-exon junction in the canonical transcript (CJ). A compound mediated exon-inclusion event was detected by observing an increase in formation of a new junction with an alternative exon (AJ). Real-time qPCR assays were used to detect these splicing switches and interrogate the potency of various compounds towards different target genes. A high-throughput real time quantitative PCR (RT-qPCR) assay was developed to measure these two isoforms of the mRNA (CJ and AJ) for exemplary genes, such as HTT, SMN2, and MYB, together with a control housekeeping gene, GAPDH or GUSB or PPIA, used for normalization. Briefly, the A673 or K562 cell line was treated with various compounds described herein (e.g., compounds of Formula (I)). After treatment, the levels of the HTT, MYB, or SMN2 mRNA targets were determined from each sample of cell lysate by cDNA synthesis followed by qPCR.
(§2) • Cells-to-CT 1-step kit: ThermoFisher A25602, Cells-to-CT lysis reagent: ThermoFisher 4391851C, TaqMan™ Fast Virus 1-Step Master Mix: ThermoFisher 4444436 • GAPDH: VIC-PL, ThermoFisher 4326317E (Assay: Hs99999905_m1)—used for K562/suspension cell lines • GUSB: VIC-PL, ThermoFisher 4326320E (Assay: Hs99999908_m1)—used for K562/suspension cell lines • PPIA: VIC-PL, ThermoFisher 4326316E (Assay: Hs99999904_m1)—used for A673/adherent cell lines
(§3) The A673 cell line was cultured in DMEM with 10% FBS. Cells were diluted with full growth media and plated in a 96-well plate (15,000 cells in 100 ul media per well). The plate was incubated at 37° C. with 5% CO2 for 24 hours to allow cells to adhere. An 11-point 3-fold serial dilution of the compounds was made in DMSO then diluted in media in an intermediate plate. Compounds were transferred from the intermediate plate to the cell plate with the top dose at a final concentration of 10 uM in the well. Final DMSO concentration was kept at or below 0.25%. The cell plate was returned to the incubator at 37° C. with 5% CO2 for an additional 24 hours.
(§4) The K562 cell line was cultured in IMDM with 10% FBS. For K562, cells were diluted with full growth media and plated in either a 96-well plate (50,000 cells in 50 uL media per well) or a 384-well plate (8,000-40,000 cells in 45 uL media per well). An 11-point 3-fold serial dilution of the compounds were made in DMSO then diluted in media in an intermediate plate. Compound was transferred from the intermediate plate to the cell plate with the top dose at a final concentration of 10 uM in the well. Final DMSO concentration was kept at or below 0.25%. Final volume was 100 uL for 96-well plate and 50 uL for 384-well plate. The cell plate was then placed in an incubator at 37° C. with 5% CO2 for 24 hours.
(§5) The cells were then gently washed with 50 uL-100 uL cold PBS before proceeding to addition of lysis buffer. 30 uL-50 uL of room temperature lysis buffer with DNAse I (and optionally RNAsin) was added to each well. Cells were shaken/mixed thoroughly at room temperature for 5-10 minutes for lysis to take place and then 3 uL-5 uL of room temperature stop solution was added and wells were shaken/mixed again. After 2-5 minutes, the cell lysate plate was transferred to ice for RT-qPCR reaction setup. The lysates could also be frozen at −80° C. for later use.
(§6) In some cases, a direct lysis buffer was used. An appropriate volume of 3× lysis buffer (10 mM Tris, 150 mM NaCl, 1.5%-2.5% Igepal and 0.1-1 U/uL RNAsin, pH 7.4) was directly added to either K562 or A673 cells in media and mixed by pipetting 3 times. The plates were then incubated at room temperature with shaking/rocking for 20-50 minutes to allow for lysis to take place. After this time, the cell lysate plate was transferred to ice to set up for the RT-qPCR reactions. The lysates could also be frozen at −80° C. for later use.

[2] = test system: MYB mRNA; experiment: RT-qPCR splicing assay, MYB canonical junction (CJ) and alternative junction (AJ) mRNA; assay type: cell-based, human; conditions: Homo sapiens; for AC50: increase in MYB alternative junction (AJ) mRNA, read-out: MYB AJ AC50
Procedure: as §1, §2, §3, §4, §5, §6

[3] = test system: Target C; experiment: RT-qPCR splicing assay panel, Target C canonical junction (CJ) mRNA; assay type: cell-based, human; conditions: Homo sapiens
Procedure: as §1, §3, §4, §5, §6
(§7) To set up 10 uL RT-qPCR reactions, cell lysates were transferred to 384-well qPCR plates containing the master mix according to the table below. The plates were sealed, gently vortexed, and spun down before the run. The volumes were adjusted accordingly in some instances where the reaction was carried in 20 uL. The table below summarizes the components of the RT-qPCR reactions:
(§8) The RT-qPCR reaction was performed using a QuantStudio (ThermoFisher) under the following fast cycling conditions.

[4] = test system: K562 (human chronic myelogenous leukemia) cells; experiment: Cell Titer Glo 2.0 cell viability assay; assay type: cell-based; conditions: Homo sapiens, K562, 72 h, K562 cells, 72 hours, Cell Titer Glo 2.0; read-out: K562 GI50
[5] = test system: SMN2 mRNA; experiment: RT-qPCR splicing assay, SMN2 canonical junction (CJ) mRNA; assay type: cell-based, human; conditions: Homo sapiens; Table 5 panel; canonical junction qPCR; compound concentration having 50% response in CJ decrease; read-out: SMN2 IC50 (decrease in CJ mRNA levels)
Procedure: as §1, §3, §4, §5, §6, §7, §8

[6] = decrease in HTT canonical junction (CJ) mRNA, RT-qPCR, read-out: HTT CJ IC50
[7] = canonical junction qPCR panel, Table 5, read-out: HTT (decrease in CJ mRNA levels, IC50)
[8] = canonical junction qPCR panel, Table 5, read-out: MYB (decrease in CJ mRNA levels, IC50)
[9] = decrease in MYB canonical junction (CJ) mRNA, RT-qPCR, read-out: MYB CJ IC50
[10] = canonical junction qPCR panel, Table 5, read-out: Target C (decrease in CJ mRNA levels, IC50)
[11] = Table 5 panel, canonical junction qPCR, compound concentration having 50% response in CJ decrease, read-out: HTT IC50 (decrease in CJ mRNA levels)
[12] = Table 5 panel, canonical junction qPCR, compound concentration having 50% response in CJ decrease, read-out: Target C IC50 (decrease in CJ mRNA levels)

Row | SMILES | IC50 [1, 6] [nM] | AC50 ([1]; RT-qPCR) [nM] | IC50 [1, 7] [nM] | IC50 [2, 8] [nM] | IC50 [2, 9] [nM] | AC50 ([2]; RT-qPCR) [nM] | IC50 [3, 10] [nM] | GI50 [4] [nM] | IC50 [1, 11] [nM] | IC50 [3, 12] [nM] | IC50 [5] [nM] | IC50 ([2]; Table 5 panel, canonical junction qPCR, compound concentration having 50% response in CJ decrease, read-out: MYB IC50 (decrease in CJ mRNA levels)) [nM]
1 | Cc1c(O)c(-c2nc(C)c3c(=O)n(C4C[C@H](C)N[C@@H](C)C4)ccc3n2)cc2cn(C)nc12 (stereo partly drawn) [Compound 1516] | 1000 to 10000 | 1000 to 10000 | 1000 to 10000 | 100 to 1000 | 100 to 1000 | 100 to 1000 | > 10000 | 100 to 1000 | – | – | – | –
2 | Cc1cn2nc(-c3ccc4c(=O)n(C5CCOCC5)ncc4c3)cc(C)c2n1 [Compound 275] | – | – | – | – | – | – | – | – | > 10000 | > 10000 | – | –
3 | Cc1cn2cc(-c3ccc4c(=O)n([C@H]5CCNC6(CC6)C5)ccc4n3)cc(F)c2n1 [Compound 1511] | 100 to 1000 | 100 to 1000 | 100 to 1000 | 100 to 1000 | 100 to 1000 | 100 to 1000 | 100 to 1000 | 100 to 1000 | – | – | – | –
4 | Cc1c(O)c(-c2ccc3c(=O)n([C@H]4CCNC5(CC5)C4)ccc3n2)cc2cn(C)nc12 [Compound 1508, 6-[(7S)-4-azaspiro[2.5]octan-7-yl]-2-(6-hydroxy-2,7-dimethyl-indazol-5-yl)-1,6-naphthyridin-5-one] | < 100 | < 100 | < 100 | < 100 | < 100 | < 100 | < 100 | < 100 | – | – | – | –
5 | Cc1cn2cc(-c3ccc4c(=O)n([C@@H]5CCNC6(CC6)C5)ccc4n3)cc(F)c2n1 [Compound 1510] | 1000 to 10000 | 100 to 1000 | 100 to 1000 | 100 to 1000 | 1000 to 10000 | 100 to 1000 | 1000 to 10000 | 100 to 1000 | – | – | – | –
6 | Cc1c(O)c(-c2ncc3c(=O)n([C@@H]4CCNC5(CC5)C4)ccc3n2)cc2cn(C)nc12 [Compound 1513] | 1000 to 10000 | 100 to 1000 | 100 to 1000 | 100 to 1000 | 100 to 1000 | 100 to 1000 | 1000 to 10000 | 100 to 1000 | – | – | – | –
7 | Cc1cn2cc(-c3ccc4c(=O)n(C5CCNCC5)ncc4c3)nc2c(C)n1 [Compound 258] | > 10000 | 1000 to 10000 | – | – | – | – | – | – | – | – | – | –
8 | Cc1cn2nc(-c3ccc4c(=O)n([C@H]5CCN[C@H](C)C5)ncc4c3)cc(C)c2n1 [Compound 273] | 100 to 1000 | < 100 | – | – | – | – | – | – | < 100 | 100 to 1000 | – | –
9 | CC[C@@H]1C[C@@H](n2ncc3cc(-c4cc(C)c5nc(C)cn5n4)ccc3c2=O)CCN1 [Compound 305] | 1000 to 10000 | 100 to 1000 | – | – | – | – | – | – | 100 to 1000 | 100 to 1000 | – | –
10 | Cc1c(O)c(-c2ccc3c(=O)n([C@@H]4CCNC5(CC5)C4)ccc3n2)cc2cn(C)nc12 [Compound 1509, 6-[(7R)-4-azaspiro[2.5]octan-7-yl]-2-(6-hydroxy-2,7-dimethyl-indazol-5-yl)-1,6-naphthyridin-5-one] | 100 to 1000 | 100 to 1000 | 100 to 1000 | < 100 | 100 to 1000 | < 100 | 100 to 1000 | 100 to 1000 | – | – | – | –
11 | Cc1cc(-c2ccc3nc(N4CCN(C)CC4)[nH]c(=O)c3c2)cc2cn(C)nc12 [Compound 165] | > 10000 | > 10000 | – | – | – | – | – | – | > 10000 | – | 100 to 1000 | –
12 | Cc1cn2nc(-c3ccc4c(c3)CCN(C3CCNCC3)C4=O)cc(C)c2n1 [Compound 185] | 1000 to 10000 | 100 to 1000 | – | – | 1000 to 10000 | 1000 to 10000 | – | – | 100 to 1000 | – | 100 to 1000 | 1000 to 10000
13 | C[C@H]1C[C@@H](n2ccc3nc(-c4cc(F)c5nn(C)cc5c4)ccc3c2=O)CCN1 [Compound 1507] | 100 to 1000 | 100 to 1000 | 100 to 1000 | 100 to 1000 | 100 to 1000 | 100 to 1000 | 1000 to 10000 | 100 to 1000 | – | – | – | –
14 | Cc1c(O)c(-c2nc(C)c3c(=O)n([C@H]4CCNC5(CC5)C4)ccc3n2)cc2cn(C)nc12 [Compound 1514, 6-[(7S)-4-azaspiro[2.5]octan-7-yl]-2-(6-hydroxy-2,7-dimethyl-indazol-5-yl)-4-methyl-pyrido[4,3-d]pyrimidin-5-one] | 1000 to 10000 | > 10000 | > 10000 | 100 to 1000 | 100 to 1000 | 100 to 1000 | 1000 to 10000 | 100 to 1000 | – | – | – | –
15 | Cc1cn2nc(-c3ccc4c(=O)n([C@@H]5CCNC6(CC6)C5)ccc4n3)cc(C)c2n1 [Compound 1505, 6-[(7R)-4-azaspiro[2.5]octan-7-yl]-2-(2,8-dimethylimidazo[1,2-b]pyridazin-6-yl)-1,6-naphthyridin-5-one] | 100 to 1000 | 100 to 1000 | 100 to 1000 | 100 to 1000 | 100 to 1000 | 100 to 1000 | 100 to 1000 | 1000 to 10000 | – | – | – | –
16 | Cc1cn2nc(-c3ccc4c(=O)n([C@H]5CCNC6(CC6)C5)ccc4n3)cc(C)c2n1 [Compound 1506, 6-[(7S)-4-azaspiro[2.5]octan-7-yl]-2-(2,8-dimethylimidazo[1,2-b]pyridazin-6-yl)-1,6-naphthyridin-5-one] | < 100 | < 100 | < 100 | 100 to 1000 | < 100 | 100 to 1000 | 100 to 1000 | 100 to 1000 | – | – | – | –
17 | Cc1cn2nc(-c3cc(C)c4c(=O)n(C5CCNC6(CC6)C5)ncc4n3)cc(C)c2n1 (stereo not drawn) [Compound 1552, 6-(4-azaspiro[2.5]octan-7-yl)-2-(2,8-dimethylimidazo[1,2-b]pyridazin-6-yl)-4-methyl-pyrido[2,3-d]pyridazin-5-one] | 100 to 1000 | 100 to 1000 | 100 to 1000 | 100 to 1000 | 100 to 1000 | 100 to 1000 | 100 to 1000 | 100 to 1000 | – | – | – | –
